Measured values taken from patent publication US20020086861A1, “Fused 1,2,4- thiadiazine derivatives, their preparation and use” (priority 1998, published 2002).
Values belong to the compound of their own block, whether it stands above or below them.

How the values were obtained:
[1] = target: T1, KATP-channels on pancreatic beta-cells (Homo sapiens, UniProt Q09428); settings: by an activation of KATP-channels on pancreatic beta-cells; cited from earlier work
T1 construct: host or cells: pancreatic beta-cells

BB-rats = settings: cited from earlier work
obese Zucker rats = settings: cited from earlier work

T1 sequence (Q09428 whole entry): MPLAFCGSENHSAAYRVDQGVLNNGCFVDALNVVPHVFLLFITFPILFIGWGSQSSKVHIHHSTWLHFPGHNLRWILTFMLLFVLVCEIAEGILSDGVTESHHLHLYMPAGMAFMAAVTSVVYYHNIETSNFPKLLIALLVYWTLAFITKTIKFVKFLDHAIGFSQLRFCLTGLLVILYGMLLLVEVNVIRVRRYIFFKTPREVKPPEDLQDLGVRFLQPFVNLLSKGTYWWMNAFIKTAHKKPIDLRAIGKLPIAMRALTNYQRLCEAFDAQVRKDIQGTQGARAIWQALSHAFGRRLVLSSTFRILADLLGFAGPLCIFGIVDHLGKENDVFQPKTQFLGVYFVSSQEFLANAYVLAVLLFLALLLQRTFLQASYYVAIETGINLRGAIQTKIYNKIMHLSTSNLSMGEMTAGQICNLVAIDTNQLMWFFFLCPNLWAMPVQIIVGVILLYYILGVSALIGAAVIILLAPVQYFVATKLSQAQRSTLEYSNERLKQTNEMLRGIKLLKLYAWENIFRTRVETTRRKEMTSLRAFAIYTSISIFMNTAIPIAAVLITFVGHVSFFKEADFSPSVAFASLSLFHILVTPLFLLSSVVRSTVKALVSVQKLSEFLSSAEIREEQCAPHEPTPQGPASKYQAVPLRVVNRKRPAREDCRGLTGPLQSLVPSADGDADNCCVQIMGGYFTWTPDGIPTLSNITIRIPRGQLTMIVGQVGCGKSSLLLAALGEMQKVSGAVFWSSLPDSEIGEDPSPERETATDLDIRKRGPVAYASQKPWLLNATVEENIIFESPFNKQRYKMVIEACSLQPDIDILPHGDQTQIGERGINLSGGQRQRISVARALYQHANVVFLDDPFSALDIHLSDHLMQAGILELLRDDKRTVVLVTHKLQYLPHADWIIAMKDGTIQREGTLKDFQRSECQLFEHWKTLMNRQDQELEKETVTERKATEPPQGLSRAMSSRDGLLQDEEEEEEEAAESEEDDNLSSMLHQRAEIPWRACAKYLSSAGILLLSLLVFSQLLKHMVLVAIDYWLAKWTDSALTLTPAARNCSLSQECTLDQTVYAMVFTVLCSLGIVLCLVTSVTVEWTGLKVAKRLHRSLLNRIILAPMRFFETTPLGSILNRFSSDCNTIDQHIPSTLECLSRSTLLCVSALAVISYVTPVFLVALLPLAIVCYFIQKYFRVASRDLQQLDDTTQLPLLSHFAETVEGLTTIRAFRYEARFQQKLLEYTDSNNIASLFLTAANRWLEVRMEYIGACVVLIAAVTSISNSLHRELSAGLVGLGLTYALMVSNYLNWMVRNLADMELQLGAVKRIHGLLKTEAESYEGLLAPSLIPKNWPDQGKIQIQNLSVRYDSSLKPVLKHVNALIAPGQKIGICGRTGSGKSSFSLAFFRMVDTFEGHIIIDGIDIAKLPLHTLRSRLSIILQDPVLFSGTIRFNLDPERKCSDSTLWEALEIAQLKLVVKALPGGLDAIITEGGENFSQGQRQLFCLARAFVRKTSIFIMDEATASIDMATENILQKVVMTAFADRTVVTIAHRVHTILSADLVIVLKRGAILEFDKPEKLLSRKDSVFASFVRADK
T1 sequence (Q14654 whole entry partner): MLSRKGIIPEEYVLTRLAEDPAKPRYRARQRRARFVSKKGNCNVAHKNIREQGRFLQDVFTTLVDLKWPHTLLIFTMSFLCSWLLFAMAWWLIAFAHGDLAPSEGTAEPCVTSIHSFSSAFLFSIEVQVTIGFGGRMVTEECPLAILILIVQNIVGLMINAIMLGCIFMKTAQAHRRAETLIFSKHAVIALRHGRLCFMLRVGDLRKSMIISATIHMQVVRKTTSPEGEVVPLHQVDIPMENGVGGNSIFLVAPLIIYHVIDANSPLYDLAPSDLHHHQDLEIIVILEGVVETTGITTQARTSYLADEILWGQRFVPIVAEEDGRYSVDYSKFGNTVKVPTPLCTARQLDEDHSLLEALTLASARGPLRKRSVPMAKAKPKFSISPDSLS

- melting point: 224 to 226 °C
Structure (SMILES): CC(C)(CO)NC1=NS(=O)(=O)c2sc(Cl)cc2N1 [Example 4, 6-Chloro-3-(2-hydroxy-1,1-dimethylethylamino)-4H-thieno[3,2-e]-1,2,4-thiadiazine 1,1-dioxide]

Structure (SMILES): CC1=Nc2ccc(Cl)cc2S(=O)(=O)N1 [diazoxide, 7-chloro-3-methyl-2H-1,2,4-benzothiadiazine 1,1-dioxide]
- insulin release [1]: inhibit insulin release
- onset of diabetes (BB-rats): delay the onset of diabetes
- glucose tolerance (obese Zucker rats): improve glucose tolerance
- insulin receptor binding (obese Zucker rats): increase insulin receptor binding
- insulin secretion (obese Zucker rats): decrease insulin secretion
- weight gain (obese Zucker rats): decrease weight gain

- melting point: ~ 360 °C (dec.)
Structure (SMILES): CC(C)(NC1=NS(=O)(=O)c2sc(Cl)cc2N1)c1ccccc1 [Example 10, 6-Chloro-3-(1-methyl-1-phenylethyl)amino-4H-thieno[3,2-e]-1,2,4-thiadiazine 1,1-dioxide]

- melting point: 339 to 340 °C
Structure (SMILES): O=S1(=O)N=C(NC23CC4CC(CC(C4)C2)C3)Nc2cc(Cl)sc21 [Example 6, 3-(1-Adamantyl)amino-6-chloro-4H-thieno[3,2-e]-1,2,4-thiadiazine 1,1-dioxide]

- melting point: 294 to 296 °C
Structure (SMILES): CC1(NC2=NS(=O)(=O)c3sc(Cl)cc3N2)CCC1 [Example 13, 6-Chloro-3-(1-methylcyclobutyl)amino-4H-thieno[3,2-e]-1,2,4-thiadiazine 1,1-dioxide]

- melting point: 213 to 214 °C
Structure (SMILES): O=S1(=O)N=C(NC2(CO)CCCC2)Nc2cc(Cl)sc21 [Example 9, 6-Chloro-3-(1-hydroxymethylcyclopentyl)amino-4H-thieno[3,2-e]-1,2,4-thiadiazine 1,1-dioxide]
